The target of one data set is T1, Efl1 R1086Q P151L (Saccharomyces cerevisiae, UniProt P53893, P151L/R1086Q).
T1 construct: made in house; host or cells: Saccharomyces cerevisiae
The data set can be described thus: ITC: binding of GTP to double mutant Efl1 R1086Q P151L. Conditions: +Mg^2+, from ΔHb at 25–35 °C. (In general: ITC needs no label: the signal is the heat of the interaction.)

For the next data set, the target named is T2, Efl1 R1086Q (Saccharomyces cerevisiae, UniProt P53893, R1086Q).
T2 construct: made in house; host or cells: Saccharomyces cerevisiae
The data set can be described thus: Isothermal titration calorimetry (ITC): binding of guanine nucleotides or Sdo1 to Efl1 R1086Q. As to conditions: for Nconfres (number of residues changing conformation, absolute value) / ΔCpb: +Mg^2+; for Nconfres (number of residues changing conformation, absolute value): 30 °C; for ΔCpb: guanine nucleotide, from ΔHb at 25–35 °C. The method, then: (§1) All calorimetric measurements were carried out using MicroCal^TM iTC200 System (GE Healthcare, Northampton, MA, USA) in a temperature range of 25–35 °C. Experiments were performed in a buffer consisting of 50 mM Tris-HCl (pH 8.0), 150 mM NaCl, 100 µM DTT, and 5% glycerol. In the titrations with Mg^2+-bound nucleotides, both the ligand and protein solutions contained 5 mM MgCl2. In the case of titrations with Mg^2+-free nucleotide, both the ligand and protein solutions were supplemented with 2 mM EDTA to sequester any residual trace of metal ions in solution. Protein samples and ligands were prepared in the exact same buffer prior to each titration. Protein concentration in the cell comprised 30–50 µM GTPase, while the ligand concentration in the syringe was 2–3 mM for GTP, MgGTP, GDP, and MgGDP. To ensure measuring the interaction of the complex Efl1 R1086Q•Sdo1 with the nucleotide, an eight-fold concentration excess of Sdo1 was used compared with that of the enzyme. […] The titration schedule consisted of 15–20 consecutive injections of the ligand with 5 min intervals between injections and a stirring rate of 700 rpm. The dilution heat of the ligand was obtained by adding the ligand to a buffer solution under identical conditions and with the same injection schedule used for the protein sample. All samples were degassed for 10 min prior to the experiment.
(§2) The binding isotherms obtained for the isolated GTPase in the presence of Mg(II) were analysed using a ternary model in which the protein can bind to the free nucleotide (G(D)TP) or that bound to one magnesium ion (MgG(D)TP); additionally, GTP may also exist in the form of Mg2GTP, which is not recognised by the protein. The derivation of this coupled-equilibria model can be reviewed in [6, 31]. The binding constant (Kb), the enthalpy change (∆Hb), and the stoichiometry (n) were obtained with the non-linear routines implemented in Origin 5.0 (OriginLab, Co., Northampton, MA, USA) using a one-binding-site model as described in [32, 33]. The heterotropic cooperativity for the binding of guanine nucleotides and Sdo1 to Efl1 R1086Q were calculated as previously described in [6, 32]. The cooperative effects of Mg(II) on the binding of guanine nucleotides to Efl1 R1086Q alone and bound to Sdo1 were calculated as follows:κ = KE-MG/KE-G κ = KES-MG/KES-G Δh = ΔHE-MG − ΔHE-G Δh = ΔHES-MG − ΔHES-G where subscripts E-MG and E-G stand for the association of the metal-bound and metal-free guanine nucleotide with mutant Efl1, respectively. Corresponding expressions applied to the heterotropic cooperativity of the binding of nucleotides to the preformed complex, Efl1•Sdo1 (ES).
(§3) The impact of Sdo1 on the binding of Efl1 R1086Q to guanine nucleotides in the presence of magnesium ions is contained in KES-MG and ΔHES-MG relative to the KE-S and ΔHE-S values; analogous ratios report the effects in the absence of Mg(II):κ = KES-MG/KE-S κ = KES-G/KE-G Δh = ΔHES-MG − ΔHE-S Δh = ΔHES-G − ΔHE-G
(§4) The corresponding cooperative entropy change was calculated as:TΔs = Δh − Δg = Δh + RTlnκ
(§5) The detailed methodology and equations to compute the changes in the accessible surface area (∆ASA) of the GTPase upon binding to nucleotides and the ∆S energetic-based parameters are reported in [6]. Briefly, the water-accessible areas (ASAs) were computed using programme NACCESS, while the changes in accessible surface area (ΔASA) upon the formation of each GTPase–nucleotide complex were estimated considering the difference between the complex and the sum of the free interacting partners. The calculated polar (ΔASAp) and apolar (ΔASAap) area changes were subsequently used to estimate the free molecular partners. […]

The test system of a further data set is wild-type Efl1. Conditions: guanine nucleotide, +Mg^2+; cited from earlier work.
For a further data set, the target named is T3, Efl1 R1086Q•Sdo1 (Saccharomyces cerevisiae, UniProt P53893, R1086Q).
T3 construct: made in house; host or cells: Efl1: Saccharomyces cerevisiae; Sdo1: Escherichia coli C41
The data set can be described thus: ITC: binding of guanine nucleotides to pre-formed complex Efl1 R1086Q•Sdo1. The method, then:
as §1, §2, §3, §4, §5

Data set [1] can be described thus: Enzyme kinetics of GTP hydrolysis (PNP coupled assay, Michaelis–Menten). Format: biochemical, Saccharomyces cerevisiae. As to conditions: enzyme in complex with Sdo1 (25 µM Sdo1). Here is the method:
Finally, we measured the enzyme kinetics of mutant Efl1 R1086Q as an isolated enzyme and bound to Sdo1 using an enzymatic coupled assay with a purine nucleoside phosphorylase (PNP) enzyme. This analysis was extended to another disease mutation (EFL1 M882K) also located in domain IV of the GTPase using the equivalent yeast variant, Efl1 L910K [17]. The Km and kcat kinetic parameters were calculated using non-linear regression assuming a Michaelis–Menten model (Supplementary Table S1). […] The catalytic constant for mutant R1086Q and the wild-type enzyme consisted of 0.67 min^−1, and it was 0.58 min^−1 for mutant Efl1 L910K. […] In line with the proposed role of Sdo1 as a guanine exchange factor of Efl1, previous results have shown that the interaction of wild-type Efl1 with Sdo1 impacted its Km for GTP, decreasing its value 2–3-fold. The Km values for the complexes formed between Sdo1 and Efl1 mutants decreased by half with respect to their cognate-free counterpart and differed from each other. […] The measured Km value comprises all the microscopic rate constants of the individual reactions occurring in the enzyme, which include the binding to the substrate and product and the corresponding conformational changes.
Hydrolysis of GTP was measured using the Enzchek Phosphate Assay kit (Molecular Probes) as described by Webb. Standard reactions consisted of 100 µL containing 6 µM of Efl1 R1086Q and Efl1 L910K, 0.3 mM MESG, 1.0 U purine nucleoside phosphorylase (PNP) and the indicated amounts of GTP. Measurements done in the presence of effector protein contained 25 µM of Sdo1.
The reaction buffer consisted of 50 mM HEPES -KOH pH 7.5, 150 mM NaCl, 5 mM MgCl2.
Reactions were initiated and the GTPase was added after 3 min. Time courses were followed by recording the change in absorbance at 360 nm in a Cary 60 UV -Vis spectrophotometer (Agilent Technologies). Background absorbance was recorded prior to the addition of the GTPase and subtracted from the sample signals. The slope of the measured time courses corresponded to the GTP hydrolysis rate. The concentration of releas ed phosphate was estimated using a molar absorption coefficient at 360 nm of 14,386 M -1 cm-1 previously described in [2]. Data were analysed by nonlinear regression to the M ichaelis-Menten equation with the program Origin Version 5.0 (OriginLab, Co., Northampton, MA). […]
M HEPES-KOH pH 7.4, 2.5 mM magnesium acetate, 50 mM sucrose, 2 mM DTT, 0.1 mM PMSF, 0.1 mM benzamidine, 8 mM putrescine, 1 mM spermidine. […]
Dilution at the end of each titration was no longer than 2.5% of the initial volume. Data were corrected for the background signal by subtracting the fluorescence of the same ligand concentration without the GTPase in the reaction mixture.
Maximum emission at 440 nm was replotted as a function of nucleotide concentration and analysed

The text below walks through data of PMC9405973, “Altered Conformational Landscape upon Sensing Guanine Nucleotides in a Disease Mutant of Elongation Factor-like 1 (EFL1) GTPase” (Biomolecules, 2022).

T1 sequence (P53893 whole entry P151L/R1086Q): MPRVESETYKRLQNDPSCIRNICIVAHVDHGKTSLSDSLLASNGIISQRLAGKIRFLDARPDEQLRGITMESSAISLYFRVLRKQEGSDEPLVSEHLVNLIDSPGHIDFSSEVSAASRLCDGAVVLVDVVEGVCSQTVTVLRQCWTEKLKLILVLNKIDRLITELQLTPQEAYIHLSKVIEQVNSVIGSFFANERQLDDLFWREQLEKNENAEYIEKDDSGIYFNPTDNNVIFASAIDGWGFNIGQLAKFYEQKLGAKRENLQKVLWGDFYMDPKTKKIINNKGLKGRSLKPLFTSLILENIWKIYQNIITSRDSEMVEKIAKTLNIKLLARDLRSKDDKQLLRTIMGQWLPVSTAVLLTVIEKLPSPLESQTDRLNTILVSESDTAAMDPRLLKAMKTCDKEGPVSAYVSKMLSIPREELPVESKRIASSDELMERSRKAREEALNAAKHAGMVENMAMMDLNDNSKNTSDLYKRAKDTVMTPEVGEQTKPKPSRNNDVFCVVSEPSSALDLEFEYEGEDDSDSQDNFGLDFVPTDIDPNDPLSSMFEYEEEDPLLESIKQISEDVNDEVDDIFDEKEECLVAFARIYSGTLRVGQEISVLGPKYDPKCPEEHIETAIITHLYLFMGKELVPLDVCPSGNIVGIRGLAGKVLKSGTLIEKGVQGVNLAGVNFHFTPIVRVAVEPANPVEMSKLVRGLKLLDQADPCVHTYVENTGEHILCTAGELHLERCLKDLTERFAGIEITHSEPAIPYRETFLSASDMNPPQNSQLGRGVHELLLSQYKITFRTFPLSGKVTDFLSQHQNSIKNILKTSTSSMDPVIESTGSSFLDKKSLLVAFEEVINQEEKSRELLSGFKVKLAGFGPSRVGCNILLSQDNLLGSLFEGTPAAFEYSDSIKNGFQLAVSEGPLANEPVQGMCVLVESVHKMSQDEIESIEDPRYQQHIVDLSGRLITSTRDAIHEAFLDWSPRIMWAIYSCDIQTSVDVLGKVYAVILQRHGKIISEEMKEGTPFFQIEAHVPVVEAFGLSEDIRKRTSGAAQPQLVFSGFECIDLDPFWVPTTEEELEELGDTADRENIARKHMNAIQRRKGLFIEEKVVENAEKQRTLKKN

Turning to MgGTP, the ΔCpb at Efl1 R1086Q P151L is reported as −220 cal mol^−1 K^−1; on Efl1 R1086Q, 10 cal mol^−1 K^−1; with wild-type Efl1, −560 cal mol^−1 K^−1; on Efl1 R1086Q•Sdo1 (+Mg^2+, from ΔHb at 25–35 °C), −400 cal mol^−1 K^−1. In addition, the “fold increase in affinity from 25 °C to 35 °C” value on Efl1 R1086Q (35 °C vs 25 °C) was found to be 1.2 fold. The “Nconfres (number of residues changing conformation, absolute value)” value on Efl1 R1086Q is listed as 3; on Efl1 R1086Q•Sdo1 (+Mg^2+, 30 °C), 36. For the same molecule, at Efl1 R1086Q•Sdo1 (presence of magnesium ions), the “additional residues modified with respect to the isolated enzyme” value worked out at 40. The “ΔΔCpb (Efl1 R1086Q•Sdo1 vs isolated enzyme)” value at Efl1 R1086Q•Sdo1 (presence of magnesium ions) was −410 cal mol^−1 K^−1.
For MgGDP, the “increase in binding enthalpy as temperature increased” value on Efl1 R1086Q (25 °C to 35 °C) is reported as ~ 3 kcal mol^−1. For the same molecule, at Efl1 R1086Q, the “Nconfres (number of residues changing conformation, absolute value)” value came out at 21 and the ΔCpb is −270 cal mol^−1 K^−1. The “surface buried by the conformational change” value on Efl1 R1086Q (refers to Table 3, 30 °C) is given as ~ 1000 Å. Further, the “ΔΔCpb (Efl1 R1086Q•Sdo1 vs isolated enzyme)” value at Efl1 R1086Q•Sdo1 (presence of magnesium ions) was −45 cal mol^−1 K^−1.

B1: Efl1 R1086Q • Sdo1: binary complex of mutant GTPase Efl1 R1086Q and effector Sdo1 (protein, UniProt P53893 1-1110; Q07953 1-250, looked up, variant R1086Q)
Ribosome assembly protein 1: MPRVESETYKRLQNDPSCIRNICIVAHVDHGKTSLSDSLLASNGIISQRLAGKIRFLDARPDEQLRGITMESSAISLYFRVLRKQEGSDEPLVSEHLVNLIDSPGHIDFSSEVSAASRLCDGAVVLVDVVEGVCSQTVTVLRQCWTEKLKPILVLNKIDRLITELQLTPQEAYIHLSKVIEQVNSVIGSFFANERQLDDLFWREQLEKNENAEYIEKDDSGIYFNPTDNNVIFASAIDGWGFNIGQLAKFYEQKLGAKRENLQKVLWGDFYMDPKTKKIINNKGLKGRSLKPLFTSLILENIWKIYQNIITSRDSEMVEKIAKTLNIKLLARDLRSKDDKQLLRTIMGQWLPVSTAVLLTVIEKLPSPLESQTDRLNTILVSESDTAAMDPRLLKAMKTCDKEGPVSAYVSKMLSIPREELPVESKRIASSDELMERSRKAREEALNAAKHAGMVENMAMMDLNDNSKNTSDLYKRAKDTVMTPEVGEQTKPKPSRNNDVFCVVSEPSSALDLEFEYEGEDDSDSQDNFGLDFVPTDIDPNDPLSSMFEYEEEDPLLESIKQISEDVNDEVDDIFDEKEECLVAFARIYSGTLRVGQEISVLGPKYDPKCPEEHIETAIITHLYLFMGKELVPLDVCPSGNIVGIRGLAGKVLKSGTLIEKGVQGVNLAGVNFHFTPIVRVAVEPANPVEMSKLVRGLKLLDQADPCVHTYVENTGEHILCTAGELHLERCLKDLTERFAGIEITHSEPAIPYRETFLSASDMNPPQNSQLGRGVHELLLSQYKITFRTFPLSGKVTDFLSQHQNSIKNILKTSTSSMDPVIESTGSSFLDKKSLLVAFEEVINQEEKSRELLSGFKVKLAGFGPSRVGCNILLSQDNLLGSLFEGTPAAFEYSDSIKNGFQLAVSEGPLANEPVQGMCVLVESVHKMSQDEIESIEDPRYQQHIVDLSGRLITSTRDAIHEAFLDWSPRIMWAIYSCDIQTSVDVLGKVYAVILQRHGKIISEEMKEGTPFFQIEAHVPVVEAFGLSEDIRKRTSGAAQPQLVFSGFECIDLDPFWVPTTEEELEELGDTADRENIARKHMNAIQRRKGLFIEEKVVENAEKQRTLKKN
Ribosome maturation protein …: MPINQPSGQIKLTNVSLVRLKKARKRFEVACYQNKVQDYRKGIEKDLDEVLQIHQVFMNVSKGLVANKEDLQKCFGTTNVDDVIEEIMHKGEIQLSEKERQLMLNKVNNEMLTIVSAKCINPVSKKRYPPTMIHKALQELKFSPVINKPAKLQALEAIKLLVSKQIIPIVRAKMKVKVAISEPSRQPELIEKISKLIASSPGESTKPELDPWTCTGLIDPVNYRDLMTLCDKKGTVQVLDMAVIDNTTHN
modifications: binary complex
For orientation: kcat means the maximal rate divided by the concentration of active sites. For the molecule B1, the kcat in data set [1] turned out to be 0.0112 s⁻¹.
